Measurements: article PMC9862026, “In Vivo Toxicity, Redox-Modulating Capacity and Intestinal Permeability of Novel Aroylhydrazone Derivatives as Anti-Tuberculosis Agents” (Pharmaceutics, 2022)
Converted amounts (≈) assume the structure as drawn. “Also recorded” adds a separate entry of the source. Read-outs that look alike come from different tables or passages of the source. Marks after values point to notes of the source that are not given here.

What was measured:
[1] = test system: Glutathione peroxidase in the liver supernatant; experiment: Glutathione peroxidase activity in liver supernatant; assay type: in vivo, mice; settings: 125 and 250 mg/kg oral, 14 days; vs controls
Experimental: (§1) Serum biochemical parameters were assessed as follows.
The Glutathione Peroxidase Cellular Activity Assay Kit (Cat. No. CGP1) and Glutathione Reductase Assay Kit (Cat. No. GRSA) were used to measure the activities of glutathione-related enzymes.

ABTS•+ assay = settings: 15 min at 37 °C
Experimental: ABTS (2,2′-azino-bis (3-ethylbenzthiazoline-6-sulphonic acid) (7.0 mM) was mixed with potassium persulfate (2.45 mM) to obtain the cationic radical (ABTS•+) The solution was diluted in methanol (2 mL ABTS•+ + 58 mL methanol). The absorption at 743 nm of the resulting working solution was 1.1 ± 0.02 AU. Then, 1.425 mL of ABTS•+ working solution was added to 75 μL of the test drugs, and the absorption at 743 nm was measured after 15 min of incubation at 37 °C against methanol. A blank containing 75 μL of water instead of the test extract also was measured against methanol.
(§2) All data are presented as IC50, which gave 50% inhibition of the activities and compared against the activity of Trolox—a common antioxidant, at the same concentrations.

female Jcl:ICR mice [2] = test system: female Jcl:ICR mice
male Jcl:ICR mice [3] = experiment: Sub-acute toxicity, 14 days oral: serum biochemical parameters; assay type: in vivo; settings: serum
Experimental: (§3) The sub-acute toxicity effects were assessed after repeated (14 days) oral administration to male mice. […] The experiments were performed with male Jcl: ICR mice at the same age of 6 weeks and weighing approximately 30–35 g, in which the substances were administered daily for 14 days orally with a gastric tube at approximately the same time of the day. The compounds were solubilized with Tween 80 (0.1%) in distilled water and administered orally in a volume of 0.1 mL per 10.0 g. Animals were observed daily for behavioral changes and signs of toxicity. All results were compared with the positive control isoniazid (INH).
as §1

female Jcl:ICR mice [4] = settings: i.p.; for Lethality: female mice
male Jcl:ICR mice [5] = experiment: Sub-acute toxicity, 14 days oral: body weight; assay type: in vivo; settings: 125 mg/kg oral, end of 14-day period
Experimental: as §3, §1

[6] = test system: MDA in the liver homogenate; experiment: Endogenous MDA (spontaneous lipid peroxidation) in liver homogenate; settings: both doses (125 and 250 mg/kg) oral, 14 days
Experimental: On day 14, the animals were anesthetized with ketamine/ xylazine and decapitated. […] Livers were taken to assess oxidative stress and antioxidant status in the study groups.
For the in vivo experiments (spontaneous lipid peroxidation) the postnuclear homogenates of the liver (mg protein/mL) in 0.15 M KCl—10 mM potassium phosphate buffer, pH 7.2, were heated for 15 min at 100 °C in the presence of 40% TCA + 5N HCl + 2% thiobarbituric acid (2:1:2 v/v) for color developing. After cooling and centrifugation, the absorbance was read at 532 nm against dd H2O as blank. The values were expressed in nmoles malondialdehyde (MDA) per mg protein, with a molar extinction coefficient of 1.56 × 10^−5 M^−1cm^−1.

HEK-293T = settings: cited from earlier work
in vivo = settings: female, Jcl:ICR, mouse, po
[7] = test system: GSH in the liver homogenate; experiment: Total glutathione in liver homogenate; assay type: in vivo, mice; settings: both doses (125 and 250 mg/kg) oral, 14 days
Experimental: as §1
According to Rahman et al. total glutathione (tGSH) concentration was determined. In the reaction between GSH and 5,5′-dithiobis-2-nitrobenzoic acid (DTNB), the rate of formation of colored substance, 5′-thio-2-nitrobenzoic acid (TNB), is proportional to the concentration of tGSH in the sample. The maximal absorption of colored TNB is at 412 nm. The concentration of tGSH was calculated using oxidized glutathione as a reference standard and was expressed as ng/mg protein.

male Jcl:ICR mice [8] = experiment: Sub-acute toxicity, 14 days oral: complete blood count; assay type: in vivo
Experimental: as §3, §1

[9] = test system: M. tuberculosis H37Rv reference strain; settings: cited from earlier work
DPPH assay = settings: 0.1 mM DPPH in methanol, 30 min
Experimental: DPPH (2,2′-diphenyl-1-picrylhydrazyl radical) assay analysis of pure compounds was conducted by the method described by Brand-Williams et al.. First, 500 μL of the test solutions were added to 500 μL of a freshly prepared solution of 0.1 mM DPPH in methanol and incubated in the dark for 30 min. Then the absorbance at 517 nm (A517) was measured against a mixture of DPPH solution and methanol (1:1) as a control.
as §2

## COc1cc(C=NNC(=O)c2snnc2C)ccc1O [3a, N′-[(4-hydroxy-3-methoxyphenyl)methylidene]-4-methyl-1,2,3-thiadiazole-5-carbohydrazide]
[1]
  activity of GPx in liver: restored the control values of GPx; also recorded: did not statistically significantly alter
ABTS•+ assay
  ABTS Scavenging, IC50: 89.47 * mg/mL
Female Jcl:ICR mice [2]; mice
  resorption index (IR) = LD50 i.p./LD50 p.os. × 100: ≈ 49%; also recorded: ≈ 98%
Female Jcl:ICR mice [2]; oral administration, highest dose of 3000 mg/kg
  Mortality: No mortality
Male Jcl:ICR mice [3]; 125 mg/kg oral
  ALAT: 62.2 ± 3.3 ^+ U/L
  ALB: 26.6 ± 2.2 ^+ g/L
  ASAT: 102 ± 3.6 ^+ U/L
  CREAT: 95.6 ± 6.6 ^+ µmol/L
  D-Bil: 3.4 ± 0.46 ^+ µmol/L
  GLU: 6.3 ± 0.36 mmol/L
  T-Bil: 7.6 ± 0.44 ^+ µmol/L
  TP: 54.3 ± 2.6 ^+ g/L
  UA: 163 ± 23.4 µmol/L
  UREA: 8.8 ± 0.28 ^+ mmol/L
Male Jcl:ICR mice [3]; 250 mg/kg oral
  ALAT: 71.4 ± 3.4 *^+ U/L
  ALB: 27.3 ± 3.1 ^+ g/L
  ASAT: 113 ± 4.1 U/L
  CREAT: 86.4 ± 5.6 ^+ µmol/L
  D-Bil: 4.9 ± 0.34 ^+ µmol/L
  GLU: 7.1 ± 0.24 mmol/L
  T-Bil: 8.3 ± 0.28 ^+ µmol/L
  TP: 58.6 ± 3.6 ^+ g/L
  UA: 194 ± 17.7 µmol/L
  UREA: 11.5 ± 0.22 ^+ mmol/L
Female Jcl:ICR mice [4]; 500 mg/kg b.w.
  Lethality: 0/3
Female Jcl:ICR mice [4]; 1000 mg/kg b.w.
  Lethality: 0/3
Female Jcl:ICR mice [4]; 1500 mg/kg b.w.
  Symptoms before Death Occur: Delayed reflexes, somnolence, lethal outcome
  Time of Occurrence of Fatal Outcome: After 30 h
Female Jcl:ICR mice [4]; 2000 mg/kg b.w.
  Symptoms before Death Occur: Impaired coordination, rapid breathing, lethal outcome
  Time of Occurrence of Fatal Outcome: After 24 h
Female Jcl:ICR mice [4]; 3000 mg/kg b.w.
  Symptoms before Death Occur: Respiratory failure with long pauses, ataxia, piloerection, seizures, lethal outcome
  Time of Occurrence of Fatal Outcome: After 20 h
Male Jcl:ICR mice [5]
  Body weight gain compared to the beginning of the experimental period: 41%
[6]
  MDA content in the liver: restoration of MDA to the control levels
HEK-293T
  IC50: 257 µM
In vivo
  LD50 at 14 days: > 2500 mg/kg
[7]
  level of GSH in liver homogenate: did not significantly increase the level of GSH
Male Jcl:ICR mice [8]; 125 mg/kg oral
  HCT: 37.2 ± 2.6 ^+ %
  Hgb: 127 ± 5.4 ^+ g/L
  PLT: 979 ± 238 10^9/L
  RBC: 6.84 ± 0.3 ^+ × 10^12/L
  WBC: 6.3 ± 0.36 ^+ × 10^9/L
Male Jcl:ICR mice [8]; 250 mg/kg oral
  HCT: 38.2 ± 1.8 ^+ %
  Hgb: 129 ± 3.8 ^+ g/L
  PLT: 638 ± 181 10^9/L
  RBC: 6.97± 0.3 ^+ × 10^12/L
  WBC: 7.4 ± 0.44 *^+ × 10^9/L
Male Jcl:ICR mice [8]; both doses (125 and 250 mg/kg) oral
  CBC deviations from the reference values: no statistically significant deviations from the reference values
[9]; ref [23]
  MIC: 0.0730 µM (≈ 0.0213 µg/mL)
DPPH assay
  DPPH Scavenging, IC50: 47.5 * mg/mL

## COc1ccc2[nH]cc(C=NNC(=O)c3ccco3)c2c1 [3b, N′-[(5-methoxy-1H-indol-3-yl)methylidene]furan-2-carbohydrazide]
[1]
  activity of GPx in liver: restored the control values of GPx; also recorded: did not statistically significantly alter
ABTS•+ assay
  ABTS Scavenging, IC50: 40.35 * mg/mL
Male Jcl:ICR mice [3]; 125 mg/kg oral
  ALAT: 77.2 ± 2.8 *^+ U/L
  ALB: 28.5 ± 3.3 ^+ g/L
  ASAT: 112.1 ± 4.4 U/L
  CREAT: 88.2 ± 3.1 ^+ µmol/L
  D-Bil: 5.1 ± 0.23 ^+ µmol/L
  GLU: 6.8 ± 0.22 mmol/L
  T-Bil: 7.8 ± 0.23 ^+ µmol/L
  TP: 56.6 ± 4.2 ^+ g/L
  UA: 199 ± 14.6 µmol/L
  UREA: 8.7 ± 0.26 ^+ mmol/L
Male Jcl:ICR mice [3]; 250 mg/kg oral
  ALAT: 71.2 ± 1.9 *^+ U/L
  ALB: 28.2 ± 2.8 g/L
  ASAT: 110 ± 3.1 U/L
  CREAT: 92.2 ± 4.4 ^+ µmol/L
  D-Bil: 3.8 ± 0.42 ^+ µmol/L
  GLU: 7.0 ± 0.16 mmol/L
  T-Bil: 8.1 ± 0.32 ^+ µmol/L
  TP: 52.2 ± 5.1 ^+ g/L
  UA: 201.3 ± 12 µmol/L
  UREA: 8.4 ± 0.23 ^+ mmol/L
Female Jcl:ICR mice [4]; 500 mg/kg b.w.
  Lethality: 0/3
Female Jcl:ICR mice [4]; 1000 mg/kg b.w.
  Lethality: 0/3
Female Jcl:ICR mice [4]; 1500 mg/kg b.w.
  Lethality: 0/3
Female Jcl:ICR mice [4]; 2000 mg/kg b.w.
  Lethality: 0/3
Female Jcl:ICR mice [4]; 3000 mg/kg b.w.
  Symptoms before Death Occur: Impaired coordination, rapid breathing, clonic seizures, death
  Time of Occurrence of Fatal Outcome: After 3 h
Male Jcl:ICR mice [5]
  Body weight gain compared to the beginning of the experimental period: 44%
HEK-293T
  IC50: 280 µM
[7]
  level of GSH in liver homogenate: did not significantly increase the level of GSH
Male Jcl:ICR mice [8]; 125 mg/kg oral
  HCT: 39.6 ± 0.8 ^+ %
  Hgb: 132.2 ± 4.2 ^+ g/L
  PLT: 729 ± 203 10^9/L
  RBC: 7.21 ± 0.16 ^+ × 10^12/L
  WBC: 8.2 ± 0.28 *^+ × 10^9/L
Male Jcl:ICR mice [8]; 250 mg/kg oral
  HCT: 40.1 ± 1.2 ^+ %
  Hgb: 130.2 ± 3.7 ^+ g/L
  PLT: 864 ± 212 10^9/L
  RBC: 7.62 ± 0.24 ^+ × 10^12/L
  WBC: 7.7 ± 0.33 *^+ × 10^9/L
[9]; ref [22]
  MIC: 0.4412 µM (≈ 0.125 µg/mL)
DPPH assay
  DPPH Scavenging, IC50: 18.69 * mg/mL
